24 compounds from patent US20200055839A1 (priority 2017, published 2020) can be followed below.

The subject of one test is NL-RLuc virus. As to the kind of experiment: Inhibition of HIV replication (NL-RLuc virus, luciferase readout in MT-2 cells). The class given is cell-based. The conditions noted are these: Human immunodeficiency virus 1, MT2, 120 h, MT-2 cells infected with NL-RLuc virus, 5 days of incubation, 10% FBS, at least 2 experiments. The method in brief: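 EC50 derived via median effect equation from at least 2 experiments, using luciferase expression as virus-growth readout. Replication-competent NL-RLuc reporter virus (nef partly replaced by Renilla luciferase) infected MT-2 cells with serial compound dilutions; 5-day incubation in RPMI 1640 plus 10% FBS.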
By EC50 is commonly meant the midpoint of the concentration-response curve. Read a high EC50 as a need for much substance. On to `Cc1nc(-c2cn(C)cn2)c(-c2ccc(OCCc3ccc(F)cc3)cc2)c(N2CCC(C)(C)CC2)c1[C@H](OC(C)(C)C)C(=O)O` [Example 57, (S)-2-(tert-Butoxy)-2-(4-(4,4-dimethylpiperidin-1-yl)-5-(4-(4-fluorophenethoxy)phenyl)-2-methyl-6-(1-methyl-1H-imidazol-4-yl)pyridin-3-yl)acetic acid], for which the EC50 came to 13 nM. The same measure, in the same setting: to `Cc1nc(N)c(-c2cc(F)c(F)c(F)c2)c(N2CCC(C)(C)CC2)c1[C@H](OC(C)(C)C)C(=O)O` [Example 58, (S)-2-(6-Amino-4-(4,4-dimethylpiperidin-1-yl)-2-methyl-5-(3,4,5-trifluorophenyl)pyridin-3-yl)-2-(tert-butoxy)acetic acid] belongs 18 nM. The compound `Cc1cc(C)n(-c2nc(C)c([C@H](OC(C)(C)C)C(=O)O)c(N3CCC(C)(C)CC3)c2-c2ccc(OCCc3ccc(F)cc3)cc2)n1` [Example 59, (S)-2-(tert-Butoxy)-2-(6-(3,5-dimethyl-1H-pyrazol-1-yl)-4-(4,4-dimethylpiperidin-1-yl)-5-(4-(4-fluorophenethoxy)phenyl)-2-methylpyridin-3-yl)acetic acid] yielded a half-maximal effective concentration (EC50) of 3 nM. Compound `Cc1nc(N)c(-c2cc(F)c(OCCc3ccc(F)cc3)c(F)c2)c(N2CCC(C)(C)CC2)c1[C@H](OC(C)(C)C)C(=O)O` [Example 60, (S)-2-(6-Amino-5-(3,5-difluoro-4-(4-fluorophenethoxy)phenyl)-4-(4,4-dimethylpiperidin-1-yl)-2-methylpyridin-3-yl)-2-(tert-butoxy)acetic acid] came in with an EC50 of 25 nM. `Cc1cc(-c2c(N)nc(C)c([C@H](OC(C)(C)C)C(=O)O)c2N2CCC(C)(C)CC2)cc(C)c1OCCc1ccc(F)cc1` [Example 61, (S)-2-(6-Amino-4-(4,4-dimethylpiperidin-1-yl)-5-(4-(4-fluorophenethoxy)-3,5-dimethylphenyl)-2-methylpyridin-3-yl)-2-(tert-butoxy)acetic acid] had an EC50 of 11 nM.

As to `Cc1nc(-n2cccn2)c(-c2ccc(OCCc3ccc(F)cc3)cc2)c(N2CCC(C)(C)CC2)c1[C@H](OC(C)(C)C)C(=O)O` [Example 62, (S)-2-(tert-Butoxy)-2-(4-(4,4-dimethylpiperidin-1-yl)-5-(4-(4-fluorophenethoxy)phenyl)-2-methyl-6-(1H-pyrazol-1-yl)pyridin-3-yl)acetic acid], the EC50 was 3 nM. Against the preceding compound, the EC50 is about 3.7-fold lower. `Cc1nc(Nc2ccccn2)c(-c2ccc(OCCc3ccc(F)cc3)cc2)c(N2CCC(C)(C)CC2)c1[C@H](OC(C)(C)C)C(=O)O` [Example 63, (S)-2-(tert-Butoxy)-2-(4-(4,4-dimethylpiperidin-1-yl)-5-(4-(4-fluorophenethoxy)phenyl)-2-methyl-6-(pyridin-2-ylamino)pyridin-3-yl)acetic acid]: the EC50 was determined as 6 nM. Take `Cc1nc(Nc2cccnc2)c(-c2ccc(OCCc3ccc(F)cc3)cc2)c(N2CCC(C)(C)CC2)c1[C@H](OC(C)(C)C)C(=O)O` [Example 64, (S)-2-(tert-Butoxy)-2-(4-(4,4-dimethylpiperidin-1-yl)-5-(4-(4-fluorophenethoxy)phenyl)-2-methyl-6-(pyridin-3-ylamino)pyridin-3-yl)acetic acid]: the EC50 amounted to 5 nM. Same read-out and setting: to `Cc1cccnc1Nc1nc(C)c([C@H](OC(C)(C)C)C(=O)O)c(N2CCC(C)(C)CC2)c1-c1ccc(OCCc2ccc(F)cc2)cc1` [Example 65, (S)-2-(tert-Butoxy)-2-(4-(4,4-dimethylpiperidin-1-yl)-5-(4-(4-fluorophenethoxy)phenyl)-2-methyl-6-((3-methylpyridin-2-yl)amino)pyridin-3-yl)acetic acid] belongs 2 nM.

`Cc1nc(Nc2cncnc2)c(-c2ccc(OCCc3ccc(F)cc3)cc2)c(N2CCC(C)(C)CC2)c1[C@H](OC(C)(C)C)C(=O)O` [Example 66, (S)-2-(tert-Butoxy)-2-(4-(4,4-dimethylpiperidin-1-yl)-5-(4-(4-fluorophenethoxy)phenyl)-2-methyl-6-(pyrimidin-5-ylamino)pyridin-3-yl)acetic acid] had an EC50 of 2 nM.

The compound `Cc1nc(Nc2ccccc2)c(-c2ccc(OCCc3ccc(F)cc3)cc2)c(N2CCC(C)(C)CC2)c1[C@H](OC(C)(C)C)C(=O)O` [Example 67, (S)-2-(tert-Butoxy)-2-(4-(4,4-dimethylpiperidin-1-yl)-5-(4-(4-fluorophenethoxy)phenyl)-2-methyl-6-(phenylamino)pyridin-3-yl)acetic acid] yielded an EC50 of 27 nM. Compound `Cc1nc(N)c(-c2cc(F)c(OCCc3ccc(F)cc3)cc2F)c(N2CCC(C)(C)CC2)c1[C@H](OC(C)(C)C)C(=O)O` [Example 68, (2S)-2-(6-Amino-5-(2,5-difluoro-4-(4-fluorophenethoxy)phenyl)-4-(4,4-dimethylpiperidin-1-yl)-2-methylpyridin-3-yl)-2-(tert-butoxy)acetic acid] returned an EC50 of 2 nM. The compound `Cc1nc(N)c(-c2ccc(OCCc3ccc(F)cc3)cc2F)c(N2CCC(C)(C)CC2)c1[C@H](OC(C)(C)C)C(=O)O` [Example 72, (2S)-2-(6-Amino-4-(4,4-dimethylpiperidin-1-yl)-5-(2-fluoro-4-(4-fluorophenethoxy)phenyl)-2-methylpyridin-3-yl)-2-(tert-butoxy)acetic acid] had an EC50 of 2 nM. This counts as single-digit nanomolar. For `Cc1nc(N)c(-c2ccc(OCCc3ccc(F)cc3)c(F)c2)c(N2CCC(C)(C)CC2)c1[C@H](OC(C)(C)C)C(=O)O` [Example 73, (S)-2-(6-Amino-4-(4,4-dimethylpiperidin-1-yl)-5-(3-fluoro-4-(4-fluorophenethoxy)phenyl)-2-methylpyridin-3-yl)-2-(tert-butoxy)acetic acid], the EC50 was 1 nM.

Take `Cc1nc(Nc2ccnnc2)c(-c2ccc(OCCc3ccc(F)cc3)c(F)c2)c(N2CCC(C)(C)CC2)c1[C@H](OC(C)(C)C)C(=O)O` [Example 74, (S)-2-(tert-Butoxy)-2-(4-(4,4-dimethylpiperidin-1-yl)-5-(3-fluoro-4-(4-fluorophenethoxy)phenyl)-2-methyl-6-(pyridazin-4-ylamino)pyridin-3-yl)acetic acid]: the EC50 is 2 nM. Regarding `Cc1nn(-c2nc(C)c([C@H](OC(C)(C)C)C(=O)O)c(N3CCC(C)(C)CC3)c2-c2ccc(OCCc3ccc(F)cc3)cc2)c(C)c1C` [Example 75, (S)-2-(tert-Butoxy)-2-(4-(4,4-dimethylpiperidin-1-yl)-5-(4-(4-fluorophenethoxy)phenyl)-2-methyl-6-(3,4,5-trimethyl-H-pyrazol-1-yl)pyridin-3-yl)acetic acid], a half-maximal response (EC50) required 3 nM. Regarding `Cc1nc(-n2nc3c(c2N)CCC3)c(-c2ccc(OCCc3ccc(F)cc3)cc2)c(N2CCC(C)(C)CC2)c1[C@H](OC(C)(C)C)C(=O)O` [Example 76, (S)-2-(6-(3-Amino-5,6-dihydrocyclopenta[c]pyrazol-2(4H)-yl)-4-(4,4-dimethylpiperidin-1-yl)-5-(4-(4-fluorophenethoxy)phenyl)-2-methylpyridin-3-yl)-2-(tert-butoxy)acetic acid], the EC50 is 4 nM. Compound `Cc1nc(Nc2ccncc2)c(-c2ccc(OCCc3ccc(F)cc3)cc2)c(N2CCC(C)(C)CC2)c1[C@H](OC(C)(C)C)C(=O)O` [Example 77, (S)-2-(tert-Butoxy)-2-(4-(4,4-dimethylpiperidin-1-yl)-5-(4-(4-fluorophenethoxy)phenyl)-2-methyl-6-(pyridin-4-ylamino)pyridin-3-yl)acetic acid] registered an EC50 of 0.6 nM. Same read-out and setting: under `Cc1ccc(Nc2nc(C)c([C@H](OC(C)(C)C)C(=O)O)c(N3CCC(C)(C)CC3)c2-c2ccc(OCCc3ccc(F)cc3)cc2)nc1` [Example 78, (S)-2-(tert-Butoxy)-2-(4-(4,4-dimethylpiperidin-1-yl)-5-(4-(4-fluorophenethoxy)phenyl)-2-methyl-6-((5-methylpyridin-2-yl)amino)pyridin-3-yl)acetic acid] stands 6 nM.

Consider `Cc1ccnc(Nc2nc(C)c([C@H](OC(C)(C)C)C(=O)O)c(N3CCC(C)(C)CC3)c2-c2ccc(OCCc3ccc(F)cc3)cc2)c1` [Example 79, (S)-2-(tert-Butoxy)-2-(4-(4,4-dimethylpiperidin-1-yl)-5-(4-(4-fluorophenethoxy)phenyl)-2-methyl-6-((4-methylpyridin-2-yl)amino)pyridin-3-yl)acetic acid], for which it took 6 nM to reach a half-maximal effect (EC50).

On to `Cc1cccc(Nc2nc(C)c([C@H](OC(C)(C)C)C(=O)O)c(N3CCC(C)(C)CC3)c2-c2ccc(OCCc3ccc(F)cc3)cc2)n1` [Example 80, (S)-2-(tert-Butoxy)-2-(4-(4,4-dimethylpiperidin-1-yl)-5-(4-(4-fluorophenethoxy)phenyl)-2-methyl-6-((6-methylpyridin-2-yl)amino)pyridin-3-yl)acetic acid], for which a half-maximal effect (EC50) was put at 2 nM. This EC50 lies about 3-fold lower than the previous one. As to `Cc1nc(Nc2cc(F)ccn2)c(-c2ccc(OCCc3ccc(F)cc3)cc2)c(N2CCC(C)(C)CC2)c1[C@H](OC(C)(C)C)C(=O)O` [Example 81, (S)-2-(tert-Butoxy)-2-(4-(4,4-dimethylpiperidin-1-yl)-5-(4-(4-fluorophenethoxy)phenyl)-6-((4-fluoropyridin-2-yl)amino)-2-methylpyridin-3-yl)acetic acid], the EC50 came out at 11 nM.

`Cc1nc(Nc2ncccc2F)c(-c2ccc(OCCc3ccc(F)cc3)cc2)c(N2CCC(C)(C)CC2)c1[C@H](OC(C)(C)C)C(=O)O` [Example 82, (S)-2-(tert-Butoxy)-2-(4-(4,4-dimethylpiperidin-1-yl)-5-(4-(4-fluorophenethoxy)phenyl)-6-((3-fluoropyridin-2-yl)amino)-2-methylpyridin-3-yl)acetic acid] gave an EC50 of 2 nM.

The same test, now with this note: MT-2 cells infected with NL-RLuc virus, 5 days of incubation, 10% FBS, at least 2 experiments.
For the compound `Cc1nc(Nc2ncccn2)c(-c2ccc(OCCc3ccc(F)cc3)c(F)c2)c(N2CCC(C)(C)CC2)c1[C@H](OC(C)(C)C)C(=O)O` [Example 69, (S)-2-(tert-Butoxy)-2-(4-(4,4-dimethylpiperidin-1-yl)-5-(3-fluoro-4-(4-fluorophenethoxy)phenyl)-2-methyl-6-(pyrimidin-2-ylamino)pyridin-3-yl)acetic acid], the EC50 came to 3 nM.
